From patent US6737383B1, “Herbicidal oxadiazolidines” (priority 1999, dated 2004)

Columns and labels:
[1] = tested on: morningglory; assay: Test B pre/postemergence morningglory; type: in vivo, Ipomoea hederacea
Summary of the method: (§1)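 Herbicidal effect was estimated by eye on a ten-point control scale after plants spent twelve to sixteen days in a greenhouse following soil or foliar treatment. Foliar sprays targeted plants at one to four leaves; all doses were formulated in a non-phytotoxic solvent with surfactant.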

[2] = tested on: sugar beet; assay: Test B pre/postemergence sugar beet; type: in vivo, Beta vulgaris; conditions: for Plant response rating, Sugarbeets: Rate 250 g/ha
Summary of the method: as §1

[3] = tested on: duck salad; assay: Test B flood test duck salad; type: in vivo, Heteranthera limosa
Summary of the method: (§2)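 Each value is a visual injury score relative to controls, with 10 meaning complete control and 0 no effect. Evaluation took place twelve to sixteen days after the 2-leaf-stage plants were treated and kept in the greenhouse.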

[4] = tested on: giant foxtail; assay: Test B pre/postemergence giant foxtail; type: in vivo, Setaria faberii
Summary of the method: as §1

[5] = tested on: soybean; assay: Test B pre/postemergence soybean; type: in vivo, Glycine max
Summary of the method: as §1

[6] = tested on: rape; assay: Test B pre/postemergence rape; type: in vivo, Brassica napus
Summary of the method: as §1

[7] = tested on: purple nutsedge; assay: Test B pre/postemergence purple nutsedge; type: in vivo, Cyperus rotundus
Summary of the method: as §1

[8] = tested on: smallflower flatsedge; assay: Test B flood test smallflower flatsedge; type: in vivo, Cyperus difformis
Summary of the method: as §2

[9] = Postemergence, Rate 125 g/ha, scale of 0 to 10 where 0 is no effect and 10 is complete control
[10] = Postemergence, Rate 250 g/ha, scale 0 to 10, 0 no effect, 10 complete control
[11] = Preemergence, Rate 62 g/ha, scale 0 to 10 (0 no effect, 10 complete control)
[12] = Preemergence, Rate 125 g/ha, scale 0 to 10 (0 no effect, 10 complete control)
[13] = Preemergence, Rate 250 g/ha, scale of 0 to 10 where 0 is no effect and 10 is complete control
[14] = Preemergence, Rate 500 g/ha, scale 0 to 10 (0 no effect, 10 complete control)
[15] = Rate 62 g/ha, Postemergence, scale of 0 to 10 where 0 is no effect and 10 is complete control
[16] = Rate 500 g/ha, Postemergence, scale 0 to 10, 0 no effect, 10 complete control
[17] = Postemergence (flood test species), Rate 125 g/ha, scale of 0 to 10 where 0 is no effect and 10 is complete control
[18] = Rate 62 g/ha, Postemergence section, flood test species, scale of 0 to 10 where 0 is no effect and 10 is complete control
[19] = Rate 250 g/ha, headed Pre-emergence (flood test species), scale 0 to 10 (0 no effect, 10 complete control)
[20] = Rate 500 g/ha, headed Pre-emergence (flood test species), scale 0 to 10 (0 no effect, 10 complete control)
[21] = Rate 500 g/ha, listed under Postemergence (flood test species), scale 0 to 10, 0 no effect, 10 complete control
[22] = Rate 2000 g/ha, Pre-emergence (as headed), scale 0 to 10

CC(C)N(C(=O)n1oc(=O)n(C2CCCCC2)c1=O)c1ccc(Cl)cc1 [Compound 111]
Morningglory plant response rating [1, 9]: 5 | Morningglory plant response rating [1, 10]: 5 | Morningglory plant response rating [1, 11]: 0 | Plant response rating, Morningglory [1, 12]: 0 | Plant response rating, Morningglory [1, 13]: 0 | Morningglory plant response rating [1, 14]: 0 | Morningglory plant response rating [1, 15]: 4 | Morningglory plant response rating [1, 16]: 8 | Sugarbeets plant response rating [2, 9]: 3 | Sugarbeets plant response rating [2, 11]: 0 | Sugarbeets plant response rating (0 to 10 scale) ([2]; Preemergence, Rate 125 g/ha, 0 is no effect, 10 is complete control): 0 | Plant response rating, Sugarbeets ([2]; Preemergence, scale of 0 to 10 where 0 is no effect and 10 is complete control): 3 | Sugarbeets plant response rating [2, 14]: 4 | Sugarbeets plant response rating [2, 15]: 2 | Plant response rating, Sugarbeets ([2]; Postemergence, scale 0 to 10, 0 is no effect, 10 is complete control): 3 | Sugarbeets plant response rating [2, 16]: 4 | Ducksalad plant response rating [3, 17]: 0 | Ducksalad plant response rating [3, 18]: 0 | Ducksalad plant response rating [3, 19]: 0 | Plant response rating, Ducksalad [3, 20]: 0 | Ducksalad plant response rating [3, 21]: 0 | Ducksalad plant response rating ([3]; Rate 1000 g/ha, Pre-emergence (as headed), scale 0 to 10): 0 | Ducksalad plant response rating [3, 22]: 0 | Ducksalad plant response rating ([3]; flood test, listed under Postemergence, Rate 250 g/ha, scale 0 to 10, 0 no effect, 10 complete control): 0 | Giant foxtail plant response rating [4, 9]: 2 | Giant foxtail plant response rating [4, 10]: 5 | Giant foxtail plant response rating [4, 11]: 8 | Plant response rating, Giant foxtail [4, 12]: 9 | Plant response rating, Giant foxtail [4, 13]: 10 | Giant foxtail plant response rating [4, 14]: 10 | Giant foxtail plant response rating [4, 15]: 2 | Giant foxtail plant response rating [4, 16]: 9 | Soybean plant response rating [5, 9]: 3 | Soybean plant response rating [5, 11]: 0 | Plant response rating, Soybean [5, 12]: 4 | Plant response rating, Soybean [5, 13]: 4 | Soybean plant response rating [5, 14]: 5 | Soybean plant response rating [5, 15]: 3 | Plant response rating, Soybean ([5]; Rate 250 g/ha, Postemergence, scale 0 to 10, 0 is no effect, 10 is complete control): 4 | Soybean plant response rating [5, 16]: 5 | Rape plant response rating [6, 9]: 3 | Rape plant response rating [6, 10]: 3 | Rape plant response rating [6, 11]: 0 | Plant response rating, Rape [6, 12]: 0 | Plant response rating, Rape [6, 13]: 4 | Rape plant response rating [6, 14]: 4 | Rape plant response rating [6, 15]: 3 | Rape plant response rating [6, 16]: 4 | Nutsedge plant response rating [7, 9]: 0 | Nutsedge plant response rating [7, 10]: 0 | Nutsedge plant response rating [7, 11]: 0 | Plant response rating, Nutsedge [7, 12]: 0 | Plant response rating, Nutsedge [7, 13]: 0 | Nutsedge plant response rating [7, 14]: 0 | Nutsedge plant response rating [7, 15]: 0 | Nutsedge plant response rating [7, 16]: 0 | S. Flatsedge plant response rating [8, 17]: 0 | S. Flatsedge plant response rating ([8]; Pre-emergence, Rate 1000 g/ha, scale 0 to 10 (0 no effect, 10 complete control)): 0 | S. Flatsedge plant response rating [8, 18]: 0 | Plant response rating, S. Flatsedge ([8]; Rate 250 g/ha, Postemergence (flood test), scale 0 to 10, 0 is no effect, 10 is complete control): 0 | S. Flatsedge plant response rating [8, 19]: 0 | Plant response rating, S. Flatsedge [8, 20]: 0 | S. Flatsedge plant response rating [8, 21]: 0 | S. Flatsedge plant response rating [8, 22]: 0
